Results: US9957237B2, “Crystal form of neptinib di-p-methylbenzenesulfonate, preparation method thereof, and pharmaceutical composition containing same” (SHENZHEN NEPTUNUS PHARMACEUTICAL RESEARCH INSTITUTE CO., …, priority 2014, dated 2018)
Each block holds one compound with its values, some of them ahead of it.

Assay: Stability studies (stress testing, accelerated test for 10 days) on crystal forms and free base
Format: physicochemical
Experimental: Detection conditions: Chromatographic column: Waters C18; Mobile phase A: acetonitrile-mobile phase B (70:30); Mobile phase B: 0.05 mol/l ammonium dihydrogen phosphate solution (pH=7.3); Column temperature: 30° C.; Detection wavelength: 247 nm.
Detection method: High performance liquid chromatography method, Pharmacopoeia of the People's Republic of China, Part II Appendix VD

[1] = Day 10, relative humidity 92.5%
[2] = Day 10, stress condition not given

Content (%) (40° C., Day 5): 98.96%
Content (%) (40° C., Day 10): 98.59%
Content (%) (60° C., Day 5): 96.77%
Content (%) (60° C., Day 10): 95.15%
Content (%) (Day 0): 99.37%
Maximum single impurity (%) (Day 0): 0.45 (RRT: 1.11) %
Maximum single impurity (%) (Day 5, 40° C.): 0.46 (RRT: 1.11) %
Maximum single impurity (%) (Day 5, 60° C.): 2.14 (RRT: 0.44) %
Maximum single impurity (%) (Day 10, 40° C.): 0.71 (RRT: 0.43) %
Maximum single impurity (%) (Day 10, 60° C.): 2.88 (RRT: 0.43) %
Stability (result in words) (under the condition of 60° C.): obviously degraded
SMILES: CCOc1cc2ncnc(Nc3ccc(F)c(Cl)c3)c2cc1NC(=O)/C=C/CN(C)C [Free base, (E)-N-(4-((3-chloro-4-fluorophenyl)amino)-7-ethoxyquinazolin-6-yl)-4-(dimethylamino)but-2-enamide, reference compound]

Maximum single impurity (%) (Day 0): 0.021 (RRT: 1.22) %
Purity (%) (Day 0): 99.98%
Total impurities (%) (Day 0): 0.02%
Water (%) (Day 0): 3.3%
Maximum single impurity (%) (Day 5, 40° C.): 0.022 (RRT: 1.22) %
Purity (%) (Day 5, 40° C.): 99.98%
Total impurities (%) (Day 5, 40° C.): 0.02%
Water (%) (Day 5, 40° C.): 3.3%
Maximum single impurity (%) (Day 5, 60° C.): 0.022 (RRT: 1.22) %
Purity (%) (Day 5, 60° C.): 99.96%
Total impurities (%) (Day 5, 60° C.): 0.04%
Water (%) (Day 5, 60° C.): 3.3%
Maximum single impurity (%) (Day 5, light irradiation): 0.051 (RRT: 0.93) %
Purity (%) (Day 5, light irradiation): 99.93%
Total impurities (%) (Day 5, light irradiation): 0.07%
Water (%) (Day 5, light irradiation): 3.1%
Maximum single impurity (%) (Day 5, relative humidity 75%): 0.021 (RRT: 1.22) %
Purity (%) (Day 5, relative humidity 75%): 99.98%
Total impurities (%) (Day 5, relative humidity 75%): 0.02%
Water (%) (Day 5, relative humidity 75%): 3.1%
Maximum single impurity (%) (Day 5, relative humidity 92.5%): 0.021 (RRT: 1.22) %
Purity (%) (Day 5, relative humidity 92.5%): 99.98%
Total impurities (%) (Day 5, relative humidity 92.5%): 0.02%
Water (%) (Day 5, relative humidity 92.5%): 3.2%
Maximum single impurity (%) (Day 10, 40° C.): 0.022 (RRT: 1.22) %
Purity (%) (Day 10, 40° C.): 99.98%
Total impurities (%) (Day 10, 40° C.): 0.02%
Water (%) (Day 10, 40° C.): 3.3%
Maximum single impurity (%) (Day 10, 60° C.): 0.020 (RRT: 1.22) %
Purity (%) (Day 10, 60° C.): 99.96%
Total impurities (%) (Day 10, 60° C.): 0.04%
Water (%) (Day 10, 60° C.): 3.3%
Maximum single impurity (%) (Day 10, light irradiation): 0.055 (RRT: 0.93) %
Purity (%) (Day 10, light irradiation): 99.91%
Total impurities (%) (Day 10, light irradiation): 0.09%
Water (%) (Day 10, light irradiation): 3.1%
Maximum single impurity (%) (Day 10, relative humidity 75%): 0.022 (RRT: 1.22) %
Purity (%) (Day 10, relative humidity 75%): 99.98%
Total impurities (%) (Day 10, relative humidity 75%): 0.02%
Water (%) (Day 10, relative humidity 75%): 3.1%
Maximum single impurity (%) [1]: 0.022 (RRT: 1.22) %
Purity (%) [1]: 99.98%
Total impurities (%) [1]: 0.02%
Water (%) [1]: 3.2%
Maximum single impurity (%) [2]: 0.022 (RRT: 1.22) %
Purity (%) [2]: 99.98%
Total impurities (%) [2]: 0.02%
Water (%) [2]: 3.2%
SMILES: CCOc1cc2ncnc(Nc3ccc(F)c(Cl)c3)c2cc1NC(=O)/C=C/CN(C)C.Cc1ccc(S(=O)(=O)O)cc1 [crystal form α, (E)-N-(4-((3-chloro-4-fluorophenyl)amino)-7-ethoxyquinazolin-yl)-4-(dimethylamino)but-2-enamide (Neptinib) di-p-methylbenzene sulfonate 1.5 hydrate]

Maximum single impurity (%) (Day 0): 0.017 (RRT: 1.22) %
Purity (%) (Day 0): 99.97%
Total impurities (%) (Day 0): 0.03%
Water (%) (Day 0): 4.4%
Maximum single impurity (%) (Day 5, 40° C.): 0.020 (RRT: 1.22) %
Purity (%) (Day 5, 40° C.): 99.97%
Total impurities (%) (Day 5, 40° C.): 0.03%
Water (%) (Day 5, 40° C.): 4.4%
Maximum single impurity (%) (Day 5, 60° C.): 0.151 (RRT: 0.93) %
Purity (%) (Day 5, 60° C.): 99.83%
Total impurities (%) (Day 5, 60° C.): 0.17%
Water (%) (Day 5, 60° C.): 4.3%
Maximum single impurity (%) (Day 5, light irradiation): 0.032 (RRT: 1.17) %
Purity (%) (Day 5, light irradiation): 99.94%
Total impurities (%) (Day 5, light irradiation): 0.06%
Water (%) (Day 5, light irradiation): 4.4%
Maximum single impurity (%) (Day 5, relative humidity 75%): 0.019 (RRT: 1.22) %
Purity (%) (Day 5, relative humidity 75%): 99.97%
Total impurities (%) (Day 5, relative humidity 75%): 0.03%
Water (%) (Day 5, relative humidity 75%): 4.4%
Maximum single impurity (%) (Day 5, relative humidity 92.5%): 0.018 (RRT: 1.22) %
Purity (%) (Day 5, relative humidity 92.5%): 99.97%
Total impurities (%) (Day 5, relative humidity 92.5%): 0.03%
Water (%) (Day 5, relative humidity 92.5%): 4.5%
Maximum single impurity (%) (Day 10, 40° C.): 0.020 (RRT: 122) %
Purity (%) (Day 10, 40° C.): 99.98%
Total impurities (%) (Day 10, 40° C.): 0.02%
Water (%) (Day 10, 40° C.): 4.5%
Maximum single impurity (%) (Day 10, 60° C.): 0.020 (RRT: 1.22) %
Purity (%) (Day 10, 60° C.): 99.94%
Total impurities (%) (Day 10, 60° C.): 0.06%
Water (%) (Day 10, 60° C.): 4.4%
Maximum single impurity (%) (Day 10, light irradiation): 0.177 (RRT: 0.93) %
Purity (%) (Day 10, light irradiation): 99.80%
Total impurities (%) (Day 10, light irradiation): 0.20%
Water (%) (Day 10, light irradiation): 4.5%
Maximum single impurity (%) (Day 10, relative humidity 75%): 0.022 (RRT: 1.22) %
Purity (%) (Day 10, relative humidity 75%): 99.98%
Total impurities (%) (Day 10, relative humidity 75%): 0.02%
Water (%) (Day 10, relative humidity 75%): 4.4%
Maximum single impurity (%) [1]: 0.021 (RRT: 1.22) %
Purity (%) [1]: 99.98%
Total impurities (%) [1]: 0.02%
Water (%) [1]: 4.5%
Maximum single impurity (%) [2]: 0.022 (RRT: 1.22) %
Purity (%) [2]: 99.98%
Total impurities (%) [2]: 0.02%
Water (%) [2]: 4.3%
SMILES: CCOc1cc2ncnc(Nc3ccc(F)c(Cl)c3)c2cc1NC(=O)/C=C/CN(C)C.Cc1ccc(S(=O)(=O)O)cc1.Cc1ccc(S(=O)(=O)O)cc1.O.O [crystal form β, (E)-N-(4-((3-chloro-4-fluorophenyl)amino)-7-ethoxyquinazolin-6-yl)-4-(dimethylamino)but-2-enamide (Neptinib) di-p-methylbenzene sulfonate 2 hydrate]
